31 compounds from US11207325B2, “Triazolopyrimidine compounds and uses thereof” (Novartis AG, priority 2014, dated 2021) can be followed below.

Test [1] concerns H3K27 methylation in G401 cell. The experiment in a line: ELISA (H3K27 methylation) assay. The format is cell-based. To be noted: Homo sapiens, G-401; ELISA Qualified assay (H3K27 methylation); read-out: (c) IC50 (μM), ELISA Qualified. The source says: ELISA (H3K27 Methylation) Assay
Background: An ELISA detects its analyte on a solid surface through an enzyme-linked reagent.

Test [2] has as its system B cell lymphoma cell KARPAS422. The experiment in a line: Analysis of cell proliferation. To be noted: Homo sapiens, KARPAS-422, 336 h; B cell lymphoma cell KARPAS422 after 14 days of treatment; read-out: antiproliferative activities (IC50 values). The format is cell-based. As to the method:
Analysis of Cell Proliferation
B cell lymphoma cell KARPAS422 was cultured using standard cell culture conditions in RPMI-1640 (Invitrogen, cat #11875) supplemented with 15% FBS (Invitrogen, cat #10099-141) in humidified incubator at 37° C., 5% CO2. To assess the effect of PRC2 inhibition on cell proliferation, exponentially growing cells were seeded at a density of 1×10^5 cells/mL in 12-well plate (Corning, cat #CLS3513). After cell seeding, a compound of the present disclosure was added to the cell media (in concentrations ranging from 0 to 100 μM, 3× dilution series). Viable cell numbers were determined every 3-4 days for up to 14 days using Vi-CELL (Beckman Coulter). On days of cell counting, fresh growth media and compound were replenished and cells split back to a density of 1×10^5 cells/mL. Total cell number is expressed as split-adjusted viable cells per mL. The dose response curves and IC50 values were generated using Prism.

One may read the IC50 as the concentration needed to halve the response being measured. On to `Cc1cc(-c2cnc(NCc3c(F)ccc4c3CCO4)n3cnnc23)n(C)n1` [Example 1, 8-(1,3-dimethyl-1H-pyrazol-5-yl)-N-((5-fluoro-2,3-dihydrobenzofuran-4-yl)methyl)-[1,2,4]triazolo[4,3-c]pyrimidin-5-amine], for which the concentration for half-maximal inhibition (IC50) in test [1] came to 0.0009 µM; in test [2], 0.4 nM. In the case of `Cc1ncccc1-c1cnc(NCc2c(F)ccc3c2CCO3)n2cnnc12` [Example 2, N-((5-fluoro-2,3-dihydrobenzofuran-4-yl)methyl)-8-(2-methylpyridin-3-yl)-[1,2,4]triazolo[4,3-c]pyrimidin-5-amine], in test [2], the concentration for half-maximal inhibition (IC50) worked out at 3 nM. For `Fc1ccc2c(c1CNc1ncc(-c3cnccn3)c3nncn13)CCO2` [Example 205, N-((5-fluoro-2,3-dihydrobenzofuran-4-yl)methyl)-8-(pyrazin-2-yl)-[1,2,4]triazolo[4,3-c]pyrimidin-5-amine], in test [1], the IC50 was 0.0167 µM.

As for `Fc1ccc2c(c1CNc1ncc(-c3cncnc3)c3nncn13)CCO2` [Example 206, N-((5-fluoro-2,3-dihydrobenzofuran-4-yl)methyl)-8-(pyrimidin-5-yl)-[1,2,4]triazolo[4,3-c]pyrimidin-5-amine], the IC50 in test [1] turned out to be 0.0159 µM. For the compound `CN(C)Cc1ccc(-c2cnc(NCc3cccc4occc34)n3cnnc23)cc1` [Example 208, N-(benzofuran-4-ylmethyl)-8-(4-((dimethylamino)methyl)phenyl)-[1,2,4]triazolo[4,3-c]pyrimidin-5-amine], the IC50 in test [1] came to 0.019 µM. The same measure, in the same setting: with `CN1CCN(c2ccc(-c3cnc(NCc4cccc5occc45)n4cnnc34)cc2)CC1` [Example 209, N-(benzofuran-4-ylmethyl)-8-(4-(4-methylpiperazin-1-yl)phenyl)-[1,2,4]triazolo[4,3-c]pyrimidin-5-amine] the figure was 0.118 µM. With `CN(C)Cc1ccc(-c2cnc(NCc3c(F)ccc4occc34)n3cnnc23)cc1` [Example 219, 8-(4-((dimethylamino)methyl)phenyl)-N-((5-fluorobenzofuran-4-yl)methyl)-[1,2,4]triazolo[4,3-c]pyrimidin-5-amine], in test [1], the IC50 came out at 0.0079 µM. Take `CN1CCC(S(=O)(=O)c2ccc(-c3cnc(NCc4cccc5occc45)n4cnnc34)cc2)CC1` [Example 220, N-(benzofuran-4-ylmethyl)-8-(4-((1-methylpiperidin-4-yl)sulfonyl)phenyl)-[1,2,4]triazolo[4,3-c]pyrimidin-5-amine]: the IC50 in test [1] worked out at 0.467 µM. In the case of `Cc1cc(C)c(-c2cnc(NCc3c(F)ccc4c3CCO4)n3cnnc23)cn1` [Example 222, 8-(4,6-dimethylpyridin-3-yl)-N-((5-fluoro-2,3-dihydrobenzofuran-4-yl)methyl)-[1,2,4]triazolo[4,3-c]pyrimidin-5-amine], in test [1], the half-maximal inhibitory concentration (IC50) came out at 0.0576 µM.

Consider `Cc1nc(CN(C)C)ccc1-c1cnc(NCc2c(F)ccc3c2CCO3)n2cnnc12` [Example 223], for which, in test [1], the half-maximal inhibitory concentration (IC50) was determined as 0.0014 µM. Same read-out and setting: the value for `CCc1cc(C)c(-c2cnc(NCc3c(F)ccc4c3CCO4)n3cnnc23)cn1` [Example 224, 8-(6-ethyl-4-methylpyridin-3-yl)-N-((5-fluoro-2,3-dihydrobenzofuran-4-yl)methyl)-[1,2,4]triazolo[4,3-c]pyrimidin-5-amine] was 0.0022 µM. Turning to `Cc1nc(OC2CC2)ncc1-c1cnc(NCc2c(F)ccc3c2CCO3)n2cnnc12` [Example 225, 8-(2-cyclopropoxy-4-methylpyrimidin-5-yl)-N-((5-fluoro-2,3-dihydrobenzofuran-4-yl)methyl)-[1,2,4]triazolo[4,3-c]pyrimidin-5-amine], in test [1], the half-maximal inhibitory concentration (IC50) was 0.0045 µM. Consider `CCOc1ncc(-c2cnc(NCc3c(F)ccc4c3CCO4)n3cnnc23)c(C)n1` [Example 226, 8-(2-ethoxy-4-methylpyrimidin-5-yl)-N-((5-fluoro-2,3-dihydrobenzofuran-4-yl)methyl)-[1,2,4]triazolo[4,3-c]pyrimidin-5-amine], for which the IC50 in test [1] was determined as 0.0061 µM. `Cn1ncc(-c2cnc(NCc3c(F)ccc4c3CCO4)n3cnnc23)c1CO` [Example 227, (4-(5-(((5-fluoro-2,3-dihydrobenzofuran-4-yl)methyl)amino)-[1,2,4]triazolo[4,3-c]pyrimidin-8-yl)-1-methyl-1H-pyrazol-5-yl)methanol]: the IC50 in test [1] came to 0.0091 µM. Take `Cc1cnc(Cl)cc1-c1cnc(NCc2c(F)ccc3c2CCO3)n2cnnc12` [Example 228, 8-(2-chloro-5-methylpyridin-4-yl)-N-((5-fluoro-2,3-dihydrobenzofuran-4-yl)methyl)-[1,2,4]triazolo[4,3-c]pyrimidin-5-amine]: the IC50 in test [1] was found to be 0.0292 µM. For the compound `CCc1ccc(-c2cnc(NCc3c(F)ccc4c3CCO4)n3cnnc23)c(C)n1` [Example 229, 8-(6-ethyl-2-methylpyridin-3-yl)-N-((5-fluoro-2,3-dihydrobenzofuran-4-yl)methyl)-[1,2,4]triazolo[4,3-c]pyrimidin-5-amine], in test [1], the IC50 was 0.0027 µM. Same read-out and setting: with `COc1nccc(-c2cnc(NCc3c(F)ccc4c3CCO4)n3cnnc23)c1C` [Example 230, N-((5-fluoro-2,3-dihydrobenzofuran-4-yl)methyl)-8-(2-methoxy-3-methylpyridin-4-yl)-[1,2,4]triazolo[4,3-c]pyrimidin-5-amine] the figure was 0.0252 µM; with `Fc1ccc2c(c1CNc1ncc(-c3ccccn3)c3nncn13)CCO2` [Example 231, N-((5-fluoro-2,3-dihydrobenzofuran-4-yl)methyl)-8-(pyridin-2-yl)-[1,2,4]triazolo[4,3-c]pyrimidin-5-amine], 0.0358 µM; with `Cc1cncc(-c2cnc(NCc3c(F)ccc4c3CCO4)n3cnnc23)c1` [Example 232, N-((5-fluoro-2,3-dihydrobenzofuran-4-yl)methyl)-8-(5-methylpyridin-3-yl)-[1,2,4]triazolo[4,3-c]pyrimidin-5-amine], 0.0133 µM. Still for that read-out and setting: with `Cc1cn(-c2cnc(NCc3c(F)ccc4c3CCO4)n3cnnc23)cn1` [Example 233, N-((5-fluoro-2,3-dihydrobenzofuran-4-yl)methyl)-8-(4-methyl-1H-imidazol-1-yl)-[1,2,4]triazolo[4,3-c]pyrimidin-5-amine] the figure was 0.002 µM; with `OCc1ccc(-c2cnc(NCc3c(F)ccc4c3CCO4)n3cnnc23)cn1` [Example 234, (5-(5-(((5-fluoro-2,3-dihydrobenzofuran-4-yl)methyl)amino)-[1,2,4]triazolo[4,3-c]pyrimidin-8-yl)pyridin-2-yl)methanol], 0.0045 µM; with `Fc1ccc2c(c1CNc1ncc(F)c3nncn13)CCO2` [Example 235, 8-fluoro-N-((5-fluoro-2,3-dihydrobenzofuran-4-yl)methyl)-[1,2,4]triazolo[4,3-c]pyrimidin-5-amine], 0.192 µM. For `Cc1cn(-c2cnc(NCc3c(F)ccc4c3CCO4)n3cnnc23)c(C)n1` [Example 236, 8-(2,4-dimethyl-1H-imidazol-1-yl)-N-((5-fluoro-2,3-dihydrobenzofuran-4-yl)methyl)-[1,2,4]triazolo[4,3-c]pyrimidin-5-amine], in test [1], the IC50 was determined as 0.0076 µM. Regarding `Fc1ccc2c(c1CNc1ncc(-n3cccn3)c3nncn13)CCO2` [Example 237, N-((5-fluoro-2,3-dihydrobenzofuran-4-yl)methyl)-8-(1H-pyrazol-1-yl)-[1,2,4]triazolo[4,3-c]pyrimidin-5-amine], the half-maximal inhibitory concentration (IC50) in test [1] is 0.0101 µM. `Cc1ncn(-c2cnc(NCc3c(F)ccc4c3CCO4)n3cnnc23)n1` [Example 238, N-((5-fluoro-2,3-dihydrobenzofuran-4-yl)methyl)-8-(3-methyl-1H-1,2,4-triazol-1-yl)-[1,2,4]triazolo[4,3-c]pyrimidin-5-amine]: the half-maximal inhibitory concentration (IC50) in test [1] amounted to 0.0179 µM. On the same count and under the same terms, the value for `Cc1cnn(-c2cnc(NCc3c(F)ccc4c3CCO4)n3cnnc23)c1` [Example 239, N-((5-fluoro-2,3-dihydrobenzofuran-4-yl)methyl)-8-(4-methyl-1H-pyrazol-1-yl)-[1,2,4]triazolo[4,3-c]pyrimidin-5-amine] was 0.0382 µM. Same read-out and setting: the value for `Fc1ccc2c(c1CNc1ncc(-n3ccnc3)c3nncn13)CCO2` [Example 240, N-((5-fluoro-2,3-dihydrobenzofuran-4-yl)methyl)-8-(1H-imidazol-1-yl)-[1,2,4]triazolo[4,3-c]pyrimidin-5-amine] was 0.0014 µM; that for `Fc1ccc2c(c1CNc1ncc(-n3cncn3)c3nncn13)CCO2` [Example 241, N-((5-fluoro-2,3-dihydrobenzofuran-4-yl)methyl)-8-(1H-1,2,4-triazol-1-yl)-[1,2,4]triazolo[4,3-c]pyrimidin-5-amine] was 0.0284 µM; that for `Cc1ncccc1-c1cnc(NCc2c(F)ccc3c2C(O)CO3)n2cnnc12` (centres unmarked) [Example 242, 5-fluoro-4-(((8-(2-methylpyridin-3-yl)-[1,2,4]triazolo[4,3-c]pyrimidin-5-yl)amino)methyl)-2,3-dihydrobenzofuran-3-ol] was 0.0634 µM. For `OCc1ncccc1-c1cnc(NCc2c(F)ccc3c2C(O)CO3)n2cnnc12` (centres unmarked) [Example 243, 5-fluoro-4-(((8-(2-(hydroxymethyl)pyridin-3-yl)-[1,2,4]triazolo[4,3-c]pyrimidin-5-yl)amino)methyl)-2,3-dihydrobenzofuran-3-ol], the half-inhibitory concentration (IC50) in test [1] is 0.0409 µM. For the compound `Cc1c(-c2cnc(NCc3c(F)ccc4c3C(O)CO4)n3cnnc23)ccc[n+]1[O-]` (centres unmarked) [Example 244, 3-(5-(((5-fluoro-3-hydroxy-2,3-dihydrobenzofuran-4-yl)methyl)amino)-[1,2,4]triazolo[4,3-c]pyrimidin-8-yl)-2-methylpyridine 1-oxide], in test [1], the IC50 is 0.241 µM.
